Reference: ChEMBL document CHEMBL3885861, “Open TG-GATES”

Species on record: Rattus norvegicus
Test: Open TG-GATES - Regimen: Daily Repeat
Format: toxicity, organism-based, Sprague-Dawley
Design: regimen Daily Repeat, gender Male, age 6 weeks
Settings: in vivo, sc, 0.2 mg/kg, route subcutaneous injection, dose 200 ug/Kg, dose level High; for APTT / Bas / Eos / Fbg / Hb / Ht / Lym / MCH / MCHC / MCV / Mono / Neu / PT / Plat / RBC / Ret / WBC: tissue Blood; for KIDNEY_L / KIDNEY_R / KIDNEY_TOTAL: tissue Kidney; for LIVER: tissue Liver; for A/G / ALP / ALT / AST / BUN / CRE / Ca / Cl / DBIL / GLC / IP / K / LDH / Na / PL / RALB / TBIL / TC / TG / TP / gamma-GTP: tissue Plasma

CC(=O)O.N=C(N)NCCC[C@@H](NC(=O)[C@@H]1CCCN1C(=O)[C@@H]1CSSCCC(=O)N[C@@H](Cc2ccc(O)cc2)C(=O)N[C@@H](Cc2ccccc2)C(=O)N[C@@H](CCC(N)=O)C(=O)N[C@@H](CC(N)=O)C(=O)N1)C(=O)NCC(N)=O [DESMOPRESSIN ACETATE]
TERMINAL_BW (72 h, time 3 day): 235.3 g
APTT (72 h, time 3 day): 17.2 s
Bas (72 h, time 3 day): 0%
Eos (72 h, time 3 day): 1%
Fbg (72 h, time 3 day): 258 mg/dL
Hb (72 h, time 3 day): 13.4 g/dL
Ht (72 h, time 3 day): 40.8%
Lym (72 h, time 3 day): 67.8%
MCH (72 h, time 3 day): 21.1 pg
MCHC (72 h, time 3 day): 32.8%
MCV (72 h, time 3 day): 64.3 fL
Mono (72 h, time 3 day): 11.8%
Neu (72 h, time 3 day): 18.8%
PT (72 h, time 3 day): 12.2 s
Plat (72 h, time 3 day): 126.8 x10_4/uL
RBC (72 h, time 3 day): 635.6 x10_4/ul
Ret (72 h, time 3 day): 6.8%
WBC (72 h, time 3 day): 73.8 x10_2/uL
KIDNEY_L (72 h, time 3 day): 1.1 g
KIDNEY_R (72 h, time 3 day): 1.1 g
KIDNEY_TOTAL (72 h, time 3 day): 2.2 g
LIVER (72 h, time 3 day): 10 g
A/G (72 h, time 3 day): 2
ALP (72 h, time 3 day): 1277.4 IU/L
ALT (72 h, time 3 day): 32 IU/L
AST (72 h, time 3 day): 69.2 IU/L
BUN (72 h, time 3 day): 20 mg/dL
CRE (72 h, time 3 day): 0.4 mg/dL
Ca (72 h, time 3 day): 11.3 mg/dL
Cl (72 h, time 3 day): 102.8 meq/L
DBIL (72 h, time 3 day): 0.012 mg/dL
GLC (72 h, time 3 day): 196.4 mg/dL
IP (72 h, time 3 day): 7.6 mg/dL
K (72 h, time 3 day): 5.5 meq/L
LDH (72 h, time 3 day): 179.6 IU/L
Na (72 h, time 3 day): 136 meq/L
PL (72 h, time 3 day): 138.6 mg/dL
RALB (72 h, time 3 day): 3.7 g/dL
TBIL (72 h, time 3 day): 0.042 mg/dL
TC (72 h, time 3 day): 75.6 mg/dL
TG (72 h, time 3 day): 85.2 mg/dL
TP (72 h, time 3 day): 5.6 g/dL
gamma-GTP (72 h, time 3 day): 1 IU/L
TERMINAL_BW ([…], time 7 day): 258.6 g
TERMINAL_BW ([…], time 14 day): 323.7 g
TERMINAL_BW ([…], time 28 day): 400.9 g
APTT ([…], time 7 day): 18.6 s
Bas ([…], time 7 day): 0%
Eos ([…], time 7 day): 1%
Fbg ([…], time 7 day): 251.8 mg/dL
Hb ([…], time 7 day): 13.6 g/dL
Ht ([…], time 7 day): 41.4%
Lym ([…], time 7 day): 75%
MCH ([…], time 7 day): 20.7 pg
MCHC ([…], time 7 day): 32.9%
MCV ([…], time 7 day): 63.1 fL
Mono ([…], time 7 day): 8.2%
Neu ([…], time 7 day): 16.2%
PT ([…], time 7 day): 13.4 s
Plat ([…], time 7 day): 122 x10_4/uL
RBC ([…], time 7 day): 656.4 x10_4/ul
Ret ([…], time 7 day): 7.3%
WBC ([…], time 7 day): 112.4 x10_2/uL
APTT ([…], time 14 day): 17 s
Bas ([…], time 14 day): 0%
Eos ([…], time 14 day): 1.2%
Fbg ([…], time 14 day): 244.8 mg/dL
Hb ([…], time 14 day): 13.8 g/dL
Ht ([…], time 14 day): 42.7%
Lym ([…], time 14 day): 73.2%
MCH ([…], time 14 day): 20.5 pg
MCHC ([…], time 14 day): 32.4%
MCV ([…], time 14 day): 63.2 fL
Mono ([…], time 14 day): 8.2%
Neu ([…], time 14 day): 17.4%
PT ([…], time 14 day): 11.9 s
Plat ([…], time 14 day): 110.6 x10_4/uL
RBC ([…], time 14 day): 675.8 x10_4/ul
Ret ([…], time 14 day): 6.1%
WBC ([…], time 14 day): 104.8 x10_2/uL
APTT ([…], time 28 day): 18.9 s
Bas ([…], time 28 day): 0%
Eos ([…], time 28 day): 1%
Fbg ([…], time 28 day): 260.8 mg/dL
Hb ([…], time 28 day): 15 g/dL
Ht ([…], time 28 day): 45.6%
Lym ([…], time 28 day): 80.4%
MCH ([…], time 28 day): 18.8 pg
MCHC ([…], time 28 day): 32.8%
MCV ([…], time 28 day): 57.4 fL
Mono ([…], time 28 day): 6.4%
Neu ([…], time 28 day): 11.8%
PT ([…], time 28 day): 12.2 s
Plat ([…], time 28 day): 112.2 x10_4/uL
RBC ([…], time 28 day): 795.2 x10_4/ul
Ret ([…], time 28 day): 3.1%
WBC ([…], time 28 day): 95 x10_2/uL
KIDNEY_L ([…], time 7 day): 1.3 g
KIDNEY_R ([…], time 7 day): 1.3 g
KIDNEY_TOTAL ([…], time 7 day): 2.6 g
KIDNEY_L ([…], time 14 day): 1.5 g
KIDNEY_R ([…], time 14 day): 1.5 g
KIDNEY_TOTAL ([…], time 14 day): 3 g
KIDNEY_L ([…], time 28 day): 1.8 g
KIDNEY_R ([…], time 28 day): 1.8 g
KIDNEY_TOTAL ([…], time 28 day): 3.6 g
LIVER ([…], time 7 day): 11.3 g
LIVER ([…], time 14 day): 13.6 g
LIVER ([…], time 28 day): 14.7 g
A/G ([…], time 7 day): 2
ALP ([…], time 7 day): 1056 IU/L
ALT ([…], time 7 day): 30.2 IU/L
AST ([…], time 7 day): 67.6 IU/L
BUN ([…], time 7 day): 21.2 mg/dL
CRE ([…], time 7 day): 0.4 mg/dL
Ca ([…], time 7 day): 13.2 mg/dL
Cl ([…], time 7 day): 98.8 meq/L
DBIL ([…], time 7 day): 0.014 mg/dL
GLC ([…], time 7 day): 200.8 mg/dL
IP ([…], time 7 day): 7.4 mg/dL
K ([…], time 7 day): 4.8 meq/L
LDH ([…], time 7 day): 169.6 IU/L
Na ([…], time 7 day): 129.8 meq/L
PL ([…], time 7 day): 130 mg/dL
RALB ([…], time 7 day): 3.6 g/dL
TBIL ([…], time 7 day): 0.042 mg/dL
TC ([…], time 7 day): 71.4 mg/dL
TG ([…], time 7 day): 90.2 mg/dL
TP ([…], time 7 day): 5.5 g/dL
gamma-GTP ([…], time 7 day): 1 IU/L
A/G ([…], time 14 day): 1.9
ALP ([…], time 14 day): 1196.4 IU/L
ALT ([…], time 14 day): 31.8 IU/L
AST ([…], time 14 day): 69.2 IU/L
BUN ([…], time 14 day): 20.8 mg/dL
CRE ([…], time 14 day): 0.4 mg/dL
Ca ([…], time 14 day): 10.7 mg/dL
Cl ([…], time 14 day): 105.6 meq/L
DBIL ([…], time 14 day): 0.014 mg/dL
GLC ([…], time 14 day): 207 mg/dL
IP ([…], time 14 day): 7.5 mg/dL
K ([…], time 14 day): 5 meq/L
LDH ([…], time 14 day): 125.6 IU/L
Na ([…], time 14 day): 138.6 meq/L
PL ([…], time 14 day): 150.8 mg/dL
RALB ([…], time 14 day): 3.7 g/dL
TBIL ([…], time 14 day): 0.038 mg/dL
TC ([…], time 14 day): 75.6 mg/dL
TG ([…], time 14 day): 119.8 mg/dL
TP ([…], time 14 day): 5.7 g/dL
gamma-GTP ([…], time 14 day): 1 IU/L
A/G ([…], time 28 day): 1.6
ALP ([…], time 28 day): 872.6 IU/L
ALT ([…], time 28 day): 28 IU/L
AST ([…], time 28 day): 62.8 IU/L
BUN ([…], time 28 day): 22 mg/dL
CRE ([…], time 28 day): 0.4 mg/dL
Ca ([…], time 28 day): 9.2 mg/dL
Cl ([…], time 28 day): 105.6 meq/L
DBIL ([…], time 28 day): 0.01 mg/dL
GLC ([…], time 28 day): 182.8 mg/dL
IP ([…], time 28 day): 6.5 mg/dL
K ([…], time 28 day): 4.8 meq/L
LDH ([…], time 28 day): 160 IU/L
Na ([…], time 28 day): 138.4 meq/L
PL ([…], time 28 day): 153.2 mg/dL
RALB ([…], time 28 day): 3.8 g/dL
TBIL ([…], time 28 day): 0.046 mg/dL
TC ([…], time 28 day): 88.4 mg/dL
TG ([…], time 28 day): 117.6 mg/dL
TP ([…], time 28 day): 6.1 g/dL
gamma-GTP ([…], time 28 day): 0.6 IU/L
